# Source: patent US9981964B2 (Agency for Science, Technology and Research, priority 2013, dated 2018)
# pIC50: −log10 of the molar value.
# System: HEK293-STF3A cells
# Assay: STF3A assay (STF luciferase reporter in Wnt3A-expressing HEK293 cells)
# Assay type: cell-based
# Details: Homo sapiens, 24 h, 1 day of treatment
# Description: HEK293-STF cell line was modified from Human embryonic kidney cell line HEK293 transfected with the STF reporter. HEK293-STF3A cell line was further modified from HEK293-STF cell line to express Wnt3A. This cell line was used to identify compounds that regulate either early or late signaling components of the Wnt pathway. These two cell lines were obtained from David Virshup's laboratory, Duke-NUS. L-Wnt3A (ATCC, #CRL-2647) cell line was used for providing Wnt3A conditioned media. The three cell lines were grown in DMEM with 10% FBS incubated in 37° C. with 5% CO2.
# 2×10^4 HEK293-STF3A cells in 75 μl culture media were seeded in each well of white 96 well plates (Greiner #655098) and incubated overnight at 37° C. 25 μl serially diluted compound was added to the cells to give final concentration of 50 μM to 1.5 nM. After 1 day of treatment, 100 μl of Steady-Glo Luciferase Assay reagent (#E2520, Promega) was added to each well and incubated for 10 minutes at room temperature. Luminescence was measured using Tecan Safire2 plate reader.
row,SMILES,pIC50
1,"COc1ccc(-c2ccc(NC(=O)CN3CCCC4=C3C(=O)N(C)C4=O)nn2)cc1 [Compound 31, N-(6-(4-methoxyphenyl)pyridazin-3-yl)-2-(6-methyl-5,7-dioxo-2,3,4,5,6,7-hexahydro-1H-pyrrolo[3,4-b]pyridin-1-yl)acetamide]",> 7.00
2,"COc1cccc(-c2ccc(NC(=O)CN3CCCC4=C3C(=O)N(C)C4=O)nn2)c1 [Compound 32, N-(6-(3-methoxyphenyl)pyridazin-3-yl)-2-(6-methyl-5,7-dioxo-2,3,4,5,6,7-hexahydro-1H-pyrrolo[3,4-b]pyridin-1-yl)acetamide]",> 7.00
3,"CC(C)N1C(=O)C2=C(C1=O)N(CC(=O)Nc1ccc(-c3ccccc3)nn1)CCC2 [Compound 33, 2-(6-isopropyl-5,7-dioxo-2,3,4,5,6,7-hexahydro-1H-pyrrolo[3,4-b]pyridin-1-yl)-N-(6-phenylpyridazin-3-yl)acetamide]",> 7.00
4,"Cc1cccc(-c2ccc(NC(=O)CN3CCCC4=C3C(=O)N(C)C4=O)nc2)n1 [Compound 34, 2-(6-methyl-5,7-dioxo-2,3,4,5,6,7-hexahydro-1H-pyrrolo[3,4-b]pyridin-1-yl)-N-(6-methyl-[2,3′-bipyridin]-6′-yl)acetamide]",> 7.00
5,Cc1ccc(-c2cnc(NC(=O)CN3CCCC4=C3C(=O)N(C)C4=O)cn2)cn1 [Compound 35],> 6.00
6,"CN1C(=O)C2=C(C1=O)N(CC(=O)Nc1ncc(-c3ccccc3)cn1)CCC2 [Compound 36, 2-(6-methyl-5,7-dioxo-2,3,4,5,6,7-hexahydro-1H-pyrrolo[3,4-b]pyridin-1-yl)-N-(5-phenylpyrimidin-2-yl)acetamide]",> 7.00
7,"CN1C(=O)C2=C(C1=O)N(CC(=O)Nc1ccc(-c3ccccc3)nc1)CCC2 [Compound 37, 2-(6-methyl-5,7-dioxo-2,3,4,5,6,7-hexahydro-1H-pyrrolo[3,4-b]pyridin-1-yl)-N-(6-phenylpyridin-3-yl)acetamide]",> 7.00
8,"O=C(CN1CCCC2=C1C(=O)N(C1CCC1)C2=O)Nc1ccc(-c2ccccc2)nn1 [Compound 38, 2-(6-cyclobutyl-5,7-dioxo-2,3,4,5,6,7-hexahydro-1H-pyrrolo[3,4-b]pyridin-1-yl)-N-(6-phenylpyridazin-3-yl)acetamide]",> 7.00
9,"Cc1ccc(-c2ccc(NC(=O)CN3CCCC4=C3C(=O)N(C)C4=O)nc2)cn1 [Compound 39, 2-(6-methyl-5,7-dioxo-2,3,4,5,6,7-hexahydro-1H-pyrrolo[3,4-b]pyridin-1-yl)-N-(6′-methyl-[3,3′-bipyridin]-6-yl)acetamide]",> 7.00
10,"Cc1cncc(-c2ccc(NC(=O)CN3CCCC4=C3C(=O)N(C)C4=O)nn2)c1 [Compound 41, 2-(6-methyl-5,7-dioxo-2,3,4,5,6,7-hexahydro-1H-pyrrolo[3,4-b]pyridin-1-yl)-N-(6-(5-methylpyridin-3-yl)pyridazin-3-yl)acetamide]",> 7.00
11,"CN1C(=O)C2=C(C1=O)N(CC(=O)Nc1ccc(-c3cccc(F)c3)nn1)CCC2 [Compound 42, N-(6-(3-fluorophenyl)pyridazin-3-yl)-2-(6-methyl-5,7-dioxo-2,3,4,5,6,7-hexahydro-1H-pyrrolo[3,4-b]pyridin-1-yl)acetamide]",> 7.00
12,"Cc1ccc(-c2ccc(NC(=O)CN3CCCC4=C3C(=O)N(C3CC3)C4=O)cn2)cn1 [Compound 44, 2-(6-cyclopropyl-5,7-dioxo-2,3,4,5,6,7-hexahydro-1H-pyrrolo[3,4-b]pyridin-1-yl)-N-(6′-methyl-[2,3′-bipyridin]-5-yl)acetamide]",> 7.00
13,"CN1C(=O)C2=C(C1=O)N(CC(=O)Nc1ccc(-c3ccc(C(F)(F)F)nc3)nn1)CCC2 [Compound 45, 2-(6-methyl-5,7-dioxo-2,3,4,5,6,7-hexahydro-1H-pyrrolo[3,4-b]pyridin-1-yl)-N-(6-(6-(trifluoromethyl)pyridin-3-yl)pyridazin-3-yl)acetamide]",> 5.30
14,"CN1C(=O)C2=C(C1=O)N(CC(=O)Nc1ccc(-c3ccc(F)nc3)nn1)CCC2 [Compound 46, N-(6-(6-fluoropyridin-3-yl)pyridazin-3-yl)-2-(6-methyl-5,7-dioxo-2,3,4,5,6,7-hexahydro-1H-pyrrolo[3,4-b]pyridin-1-yl)acetamide]",> 7.00
15,"CN1C(=O)C2=C(C1=O)N(CC(=O)Nc1ccc(-c3cccnn3)cc1)CCC2 [Compound 47, 2-(6-methyl-5,7-dioxo-2,3,4,5,6,7-hexahydro-1H-pyrrolo[3,4-b]pyridin-1-yl)-N-(4-(pyridazin-3-yl)phenyl)acetamide]",> 6.00
16,"CN1C(=O)C2=C(C1=O)N(CC(=O)Nc1ccc(-c3cncc(C(F)(F)F)c3)nn1)CCC2 [Compound 48, 2-(6-methyl-5,7-dioxo-2,3,4,5,6,7-hexahydro-1H-pyrrolo[3,4-b]pyridin-1-yl)-N-(6-(5-(trifluoromethyl)pyridin-3-yl)pyridazin-3-yl)acetamide]",> 7.00

row,SMILES,pIC50
1,"CN1C(=O)C2=C(C1=O)N(CC(=O)Nc1ccc(-c3ccc(C(F)(F)F)cc3)nn1)CCC2 [Compound 49, 2-(6-methyl-5,7-dioxo-2,3,4,5,6,7-hexahydro-1H-pyrrolo[3,4-b]pyridin-1-yl)-N-(6-(4-(trifluoromethyl)phenyl)pyridazin-3-yl)acetamide]",> 5.00
2,"CN1C(=O)C2=C(C1=O)N(CC(=O)Nc1ccc(-c3cccc(C(F)(F)F)c3)nn1)CCC2 [Compound 50, 2-(6-methyl-5,7-dioxo-2,3,4,5,6,7-hexahydro-1H-pyrrolo[3,4-b]pyridin-1-yl)-N-(6-(3-(trifluoromethyl)phenyl)pyridazin-3-yl)acetamide]",> 7.00
3,"O=C(CN1CCCC2=C1C(=O)N(C1CC1)C2=O)Nc1ccc(-c2ccc(C(F)(F)F)cc2)nn1 [Compound 51, 2-(6-cyclopropyl-5,7-dioxo-2,3,4,5,6,7-hexahydro-1H-pyrrolo[3,4-b]pyridin-1-yl)-N-(6-(4-(trifluoromethyl)phenyl)pyridazin-3-yl)acetamide]",> 6.00
4,"Cc1cncc(-c2ccc(NC(=O)CN3CCCC4=C3C(=O)N(C3CC3)C4=O)nn2)c1 [Compound 53, 2-(6-cyclopropyl-5,7-dioxo-2,3,4,5,6,7-hexahydro-1H-pyrrolo[3,4-b]pyridin-1-yl)-N-(6-(5-methylpyridin-3-yl)pyridazin-3-yl)acetamide]",> 7.00
5,"O=C(CN1CCCC2=C1C(=O)N(C1CC1)C2=O)Nc1ccc(-c2cncc(C(F)(F)F)c2)nn1 [Compound 54, 2-(6-cyclopropyl-5,7-dioxo-2,3,4,5,6,7-hexahydro-1H-pyrrolo[3,4-b]pyridin-1-yl)-N-(6-(5-(trifluoromethyl)pyridin-3-yl)pyridazin-3-yl)acetamide]",> 7.00
6,"O=C(CN1CCCC2=C1C(=O)N(C1CC1)C2=O)Nc1ccc(-c2cccc(C(F)(F)F)c2)nn1 [Compound 55, 2-(6-cyclopropyl-5,7-dioxo-2,3,4,5,6,7-hexahydro-1H-pyrrolo[3,4-b]pyridin-1-yl)-N-(6-(3-(trifluoromethyl)phenyl)pyridazin-3-yl)acetamide]",> 7.00
7,"O=C(CN1CCCC2=C1C(=O)N(C1CC1)C2=O)Nc1ccc(-c2cccc(OC(F)(F)F)c2)nn1 [Compound 56, 2-(6-cyclopropyl-5,7-dioxo-2,3,4,5,6,7-hexahydro-1H-pyrrolo[3,4-b]pyridin-1-yl)-N-(6-(3-(trifluoromethoxy)phenyl)pyridazin-3-yl)acetamide]",> 6.00
8,"O=C(CN1CCCC2=C1C(=O)N(C1CC1)C2=O)Nc1ccc(-c2ccc(OC(F)(F)F)cc2)nn1 [Compound 57, 2-(6-cyclopropyl-5,7-dioxo-2,3,4,5,6,7-hexahydro-1H-pyrrolo[3,4-b]pyridin-1-yl)-N-(6-(4-(trifluoromethoxy)phenyl)pyridazin-3-yl)acetamide]",> 6.00
9,"O=C(CN1CCCC2=C1C(=O)N(C1CC1)C2=O)Nc1ccc(-c2cncc(Cl)c2)nn1 [Compound 58, N-(6-(5-chloropyridin-3-yl)pyridazin-3-yl)-2-(6-cyclopropyl-5,7-dioxo-2,3,4,5,6,7-hexahydro-1H-pyrrolo[3,4-b]pyridin-1-yl)acetamide]",> 7.00
10,"O=C(CN1CCCC2=C1C(=O)N(C1CC1)C2=O)Nc1ccc(-c2cccnc2)nc1 [Compound 59, N-(2,3′-bipyridin-5-yl)-2-(6-cyclopropyl-5,7-dioxo-2,3,4,5,6,7-hexahydro-1H-pyrrolo[3,4-b]pyridin-1-yl)acetamide]",> 7.00
11,"CC(C(=O)Nc1ccc(-c2cccnc2)nn1)N1CCCC2=C1C(=O)N(C)C2=O (stereo not shown) [Compound 60, 2-(6-methyl-5,7-dioxo-2,3,4,5,6,7-hexahydro-1H-pyrrolo[3,4-b]pyridin-1-yl)-N-(6-(pyridin-3-yl)pyridazin-3-yl)propanamide]",> 7.00
12,O=C(CN1CCCC2=C1C(=O)N(C1CC1)C2=O)Nc1ccc(-c2cncc(C(F)F)c2)nn1 [Compound 61],> 7.00
13,"Cc1cc(NC(=O)CN2CCCC3=C2C(=O)N(C2CC2)C3=O)nnc1-c1cccnc1 [Compound 62, 2-(6-cyclopropyl-5,7-dioxo-2,3,4,5,6,7-hexahydro-1H-pyrrolo[3,4-b]pyridin-1-yl)-N-(5-methyl-6-(pyridin-3-yl)pyridazin-3-yl)acetamide]",> 5.30
14,"CN1C(=O)c2c(n(CC(=O)Nc3ccc(-c4cccnc4)cn3)ccc2=O)C1=O [Compound 63, N-(3,3′-bipyridin-6-yl)-2-(6-methyl-4,5,7-trioxo-4,5,6,7-tetrahydro-1H-pyrrolo[3,4-b]pyridin-1-yl)acetamide]",> 6.00
15,"CN1C(=O)c2c(n(CC(=O)Nc3ccc(-c4cccnc4)nn3)ccc2=O)C1=O [Compound 64, 2-(6-methyl-4,5,7-trioxo-4,5,6,7-tetrahydro-1H-pyrrolo[3,4-b]pyridin-1-yl)-N-(6-(pyridin-3-yl)pyridazin-3-yl)acetamide]",> 6.00
